From patent publication US7563791B2, “Pyrrolotriazine derivatives useful for treating hyper-proliferative disorders and diseases associated with angiogenesis” (Bayer Pharmaceuticals Corporation, priority 2004, dated 2009)
pIC50: −log10 of the molar value.

What was measured:
Assay type in all cases: cell-based
[1] = system: VEGFR stimulated HUVEC proliferation; assay: BRDU growth factor stimulated proliferation of HUVEC (VEGF stimulation); details: Homo sapiens, 72 h, 80 ng/ml VEGF, 3 days, BrdU incorporation; for IC50: bound given in μM
Protocol: (§1) BRDU Growth Factor Stimulated Proliferation of HUVEC
(§2) Exponentially growing human umbilical vein endothelial cells (HUVEC; Cat# CC-2519A, Cambrex, Walkersville, Md.) were seeded at two thousand cells/well into Collagen IV-coated 96 well plates (Cat#35-4429, Becton Dickinson, Bedford, Mass.) in assay media containing RPMI-1640 (Cat#11875-093, Gibco, Carlsbad, Calif.), 0.5% charcoal-stripped serum (Cat# SH30068.03, HyClone, Logan, Utah), and 1% N-2 supplement (Cat#17502-048, Gibco, Carlsbad, Calif.). Fours hours after incubating the plates at 37° C. in 5% CO2, the cells were treated with different concentrations of compound (diluted in assay media with a final DMSO concentration=0.1%) and then were immediately stimulated with 80 ng/ml of vascular endothelial growth factor (VEGF, Cat#100-20, PeproTech, Rocky Hill, N.J.) or 1.5 ng/ml of basic fibroblast growth factor (bFGF, Catt#100-18B, PeproTech, Rocky Hill, N.J.). Treated cells were incubated for 3 days at 37° C. in 5% CO2. DNA synthesis was measured via the incorporation of bromodeoxyuridine (BrdU) into newly synthesized DNA using the Amersham Cell Proliferation BioTrack ELISA system (Cat# RPN250, Amersham, Piscataway, N.J.). Diluted BrdU solution (20 μl of stock BrdU diluted 1:20 fold into assay media) was added to each well and incubation proceeded for 6 hours at 37° C. in 5% CO2. The media was removed and the cells were fixed according to the specifications of the Amersham assay kit for 30 minutes at room temperature. After removing the fixative, blocking buffer (supplied by Amersham kit; 200 μl/well) was added and the plates were stored at 4° C. overnight. The blocking buffer was aspirated and peroxidase-labeled anti-BrdU antibody (supplied by Amersham kit; 100 μl/well) was added and incubated for 3 hours at room temperature. The plates were washed three times with wash buffer (supplied by Amersham kit; 300 μl/well/wash). Immediately following the washes, 100 μl of the TMB-substrate was dispensed into each well and the plates were further incubated for 30 minutes at room temperature. The reaction was terminated by the addition of 25 μl of 1M H2SO4. Plates were read immediately at 450 nm using a SpectraMAX 250 spectrophotometer plate reader (Molecular Devices, Sunnyvale, Calif.). The software utilized was SoftMAX pro v.2.4.1.

[2] = system: FGFR stimulated HUVEC proliferation; assay: BRDU growth factor stimulated proliferation of HUVEC (bFGF stimulation); details: Homo sapiens, 72 h, 1.5 ng/ml bFGF, 3 days, BrdU incorporation
Protocol: as §1, §2

[3] = system: HCT116 cells; assay: Tumor cell proliferation (Alamar Blue), HCT116; details: Homo sapiens, HCT-116, 72 h; for IC50: bounds given in μM
Protocol: (§3) Human tumor cells (e.g., HCT116 or MDA-MB-231 cells), are seeded in a Costar 96-well plate at 3.0×10^3 cells/well and grown in 150 μl of RPMI complete media (Invitrogen Corporation, Grand Island, N.Y.) containing 10% fetal bovine serum (Hyclone, Logan, Utah) at 37° C. for 16 h in an incubator with 5% CO2. To each well, 50 μl of additional growth media containing 40 μM to 18 nM concentrations of compound with 0.4% DMSO is added. Cells are grown for another 72 h at 37° C. with 5% CO2. 20 μl of Alamar Blue (Trek Diagnostic Systems, Inc., Cleveland, Ohio) reagent is added to each well and incubated for 3 h at 37° C. Plates are read in a SpectraMax Gemini (Molecular Devices, Calif.) with 544 nm excitation and 590 nm emission wavelength. IC50 values are determined by linear regression analysis of log drug concentration versus percent inhibition.

[4] = system: MDA-MB-231 cells; assay: Tumor cell proliferation (Alamar Blue), MDA-MB-231; details: Homo sapiens, MDA-MB-231, 72 h; for IC50: bounds given in μM
Protocol: as §3

[5] = system: VEGF stimulated Phospho-ERK in HUVEC; assay: Growth factor stimulated p-ERK assay in HUVECs (VEGF stimulation, ERK1/2 Bioplex); details: Homo sapiens, compound 2 hrs, then 50 ng/ml VEGF 10 min; for inhibition at 0.1 µM: @ 100 nM
Outline: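 HUVECs in serum-free RPMI 1640/0.1% BSA pretreated with compound 2 hrs, then stimulated 10 min with 50 ng/ml VEGF (or bFGF). Lysate phospho-ERK1/2 quantified by bead-based Bio-Plex immunoassay on Luminex.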

| pIC50 [3] | IC50 [3] [µM] | pIC50 [4] | IC50 [4] [µM] | Structure (SMILES) | pIC50 [1] | pIC50 [2] | IC50 [1] [µM] | IC50 ([2]; bound given in μM) [µM] | inhibition at 0.1 µM [5] [%] | inhibition at 1 µM ([5]; @ 1 μM) [%] |
| --- | --- | --- | --- | --- | --- | --- | --- | --- | --- | --- |
| – | – | – | – | N#Cc1cn2ncnc(N)c2c1-c1ccc(NC(=O)Nc2cccc(OC(F)(F)F)c2)cc1 [Example 152, N-[4-(4-amino-6-cyanopyrrolo[2,1-f][1,2,4]triazin-5-yl)phenyl]-N′-[3-(trifluoromethoxy)phenyl]urea] | 6.30 to 7.00 | 6.30 to 7.00 | – | – | – | – |
| < 6.30 | < 1.5 | < 6.30 | < 1.5 | CC(C)(C)c1cc(NC(=O)Nc2ccc(-c3c(CO)cn4ncnc(N)c34)cc2)n(-c2ccc(F)cc2)n1 [Example 239, N-{4-[4-amino-6-(hydroxymethyl)pyrrolo[2,1-f][1,2,4]triazin-5-yl]phenyl}-N′-[3-tert-butyl-1-(4-fluorophenyl)-1H-pyrazol-5-yl]urea] | 7.00 to 8.00 | 6.30 to 7.00 | – | – | – | – |
| < 6.30 | < 1.5 | – | 1.5 to 5 | Nc1ncnn2cc(-c3cnco3)c(-c3ccc(NC(=O)Nc4ccc(F)c(C(F)(F)F)c4)cc3)c12 [Example 162, N-{4-[4-amino-6-(1,3-oxazol-5-yl)pyrrolo[2,1-f][1,2,4]triazin-5-yl]phenyl}-N′-[4-fluoro-3-(trifluoromethyl)phenyl]urea] | 7.00 to 8.00 | 6.30 to 7.00 | – | – | – | – |
| – | – | – | – | N#Cc1cn2ncnc(N)c2c1-c1ccc(NC(=O)Nc2ccc(F)c(C(F)(F)F)c2)cc1 [Example 151, N-[4-(4-amino-6-cyanopyrrolo[2,1-f][1,2,4]triazin-5-yl)phenyl]-N′-[4-fluoro-3-(trifluoromethyl)phenyl]urea] | 7.00 to 8.00 | > 7.00 | – | – | – | – |
| < 6.30 | < 1.5 | < 6.30 | < 1.5 | CC(=O)c1cn2ncnc(N)c2c1-c1ccc(NC(=O)Nc2cc(C(F)(F)F)ccc2F)cc1 [Example 223, N-[4-(6-acetyl-4-aminopyrrolo[2,1-f][1,2,4]triazin-5-yl)phenyl]-N′-[2-fluoro-5-(trifluoromethyl)phenyl]urea] | 7.00 to 8.00 | > 7.00 | – | – | – | – |
| – | 1.5 to 5 | – | 1.5 to 5 | COCCOCc1cn2ncnc(N)c2c1-c1ccc(NC(=O)Nc2cc(C(F)(F)F)ccc2F)cc1 [Example 157, N-(4-{4-amino-6-[(2-methoxyethoxy)methyl]pyrrolo[2,1-f][1,2,4]triazin-5-yl}phenyl)-N′-[2-fluoro-5-(trifluoromethyl)phenyl]urea] | 7.00 to 8.00 | 6.30 to 7.00 | – | – | – | – |
| – | 1.5 to 5 | – | 1.5 to 5 | Nc1ncnn2cc(-c3nnco3)c(-c3ccc(NC(=O)Nc4cc(C(F)(F)F)ccc4F)cc3)c12 [Example 163, N-{4-[4-amino-6-(1,3,4-oxadiazol-2-yl)pyrrolo[2,1-f][1,2,4]triazin-5-yl]phenyl}-N′-[2-fluoro-5-(trifluoromethyl)phenyl]urea] | < 6.30 | – | < 2 | – | – | – |
| – | 1.5 to 5 | – | 1.5 to 5 | N#CCc1cn2ncnc(N)c2c1-c1ccc(NC(=O)Nc2cc(C(F)(F)F)ccc2F)cc1 [Example 240, N-{4-[4-amino-6-(cyanomethyl)pyrrolo[2,1-f][1,2,4]triazin-5-yl]phenyl}-N′-[2-fluoro-5-(trifluoromethyl)phenyl]urea] | 6.30 to 7.00 | < 6.30 | – | < 1 | – | – |
| – | 1.5 to 5 | – | 1.5 to 5 | COCc1cn2ncnc(N)c2c1-c1ccc(NC(=O)Nc2cc(C(F)(F)F)ccn2)c(F)c1 [Example 247, N-{4-[4-amino-6-(methoxymethyl)pyrrolo[2,1-f][1,2,4]triazin-5-yl]-2-fluorophenyl}-N′-[4-(trifluoromethyl)pyridin-2-yl]urea] | 6.30 to 7.00 | 6.30 to 7.00 | – | – | – | – |
| – | 1.5 to 5 | – | 1.5 to 5 | N#CCc1cn2ncnc(N)c2c1-c1ccc(NC(=O)Nc2cc(C(F)(F)F)ccn2)cc1 [Example 226, N-{4-[4-amino-6-(cyanomethyl)pyrrolo[2,1-f][1,2,4]triazin-5-yl]phenyl}-N′-[4-(trifluoromethyl)pyridin-2-yl]urea] | > 8.00 | 6.30 to 7.00 | – | – | – | – |
| – | 1.5 to 5 | – | 1.5 to 5 | CC(=O)c1cn2ncnc(N)c2c1-c1ccc(NC(=O)Nc2cc(C(F)(F)F)ccn2)cc1 [Example 233, N-[4-(6-acetyl-4-aminopyrrolo[2,1-f][1,2,4]triazin-5-yl)phenyl]-N′-[4-(trifluoromethyl)pyridin-2-yl]urea] | 7.00 to 8.00 | 6.30 to 7.00 | – | – | – | – |
| – | 1.5 to 5 | – | 1.5 to 5 | Nc1ncnn2cc(CO)c(-c3ccc(NC(=O)Nc4cc(C(F)(F)F)ccn4)c(F)c3)c12 [Example 243, N-{4-[4-amino-6-(hydroxymethyl)pyrrolo[2,1-f][1,2,4]triazin-5-yl]-2-fluorophenyl}-N′-[4-(trifluoromethyl)pyridin-2-yl]urea] | 7.00 to 8.00 | 6.30 to 7.00 | – | – | – | – |
| – | – | – | – | COCc1cn2ncnc(N)c2c1-c1ccc(NC(=O)Nc2cc(C(F)(F)F)ccn2)cc1 [Example 101, N-{4-[4-amino-6-(methoxymethyl)pyrrolo[2,1-f][1,2,4]triazin-5-yl]phenyl}-N′-[4-(trifluoromethyl)pyridin-2-yl]urea] | > 8.00 | > 7.00 | – | – | – | – |
| – | 1.5 to 5 | – | 1.5 to 5 | COCc1cn2ncnc(N)c2c1-c1ccc(NC(=O)Nc2cc(C(F)(F)F)ccc2F)cc1 [Example 100, N-{4-[4-amino-6-(methoxymethyl)pyrrolo[2,1-f][1,2,4]triazin-5-yl]phenyl}-N′-[2-fluoro-5-(trifluoromethyl)phenyl]urea] | < 6.30 | – | < 2 | – | < 50 | > 50 |
| – | 1.5 to 5 | – | 1.5 to 5 | Nc1ncnn2cc(-c3nc(CO)co3)c(-c3ccc(NC(=O)Nc4cc(C(F)(F)F)ccn4)cc3)c12 [Example 234, N-(4-{4-amino-6-[4-(hydroxymethyl)-1,3-oxazol-2-yl]pyrrolo[2,1-f][1,2,4]triazin-5-yl}phenyl)-N′-[4-(trifluoromethyl)pyridin-2-yl]urea] | 7.00 to 8.00 | 6.30 to 7.00 | – | – | – | – |
| < 6.30 | < 1.5 | < 6.30 | < 1.5 | Nc1ncnn2cc(-c3cnco3)c(-c3ccc(NC(=O)Nc4cc(F)cc(C(F)(F)F)c4)cc3)c12 [Example 159, N-{4-[4-amino-6-(1,3-oxazol-5-yl)pyrrolo[2,1-f][1,2,4]triazin-5-yl]phenyl}-N′-[3-fluoro-5-(trifluoromethyl)phenyl]urea] | 7.00 to 8.00 | 6.30 to 7.00 | – | – | – | – |
| – | 1.5 to 5 | – | – | Nc1ncnn2cc(CN3CCOCC3)c(-c3ccc(NC(=O)Nc4cc(C(F)(F)F)ccc4F)cc3)c12 [Example 30, N-{4-[4-amino-6-(morpholin-4-ylmethyl)pyrrolo[2,1-f][1,2,4]triazin-5-yl]phenyl}-N′-[2-fluoro-5-(trifluoromethyl)phenyl]urea] | 6.30 to 7.00 | 6.30 to 7.00 | – | – | > 50 | – |
